Literature values in patent publication US4795743A, “2'-deamino-2'-hydroxyistamycin Bo derivatives of low toxicity” (Zaidan Hojin Biseibutsu Kagaku Kenkyu Kai, priority 1986, dated 1989).

System: resistant bacteria, Pseudomonas aeruginosa, resistant strains of gram-negative and gram-positive bacteria
Settings: background, earlier filings; cited from earlier work

## CNCC1CCC(N)C(OC2C(N)CC(O)C(N(C)C(=O)CN)C2O)O1 (stereo not shown) [3-O-demethylistamycin B]
  antibacterial activity: active against resistant bacteria, Pseudomonas aeruginosa and also against a variety of resistant strains of gram-negative and gram-positive bacteria
